Legend:
[1] = system: AC133 positive neural progenitors; assay: clonal generation of neurospheres from dissociated mouse postnatal forebrain; format: cell-based
[2] = system: clonal neurospheres from postnatal rat forebrain; format: cell-based; conditions: at 1 μM
[3] = system: AC133 and nestin expression in brain cortex; assay: neural stem cell markers in brain after traumatic brain injury in mice treated with 2-AG (blots); format: in vivo
[4] = i.p. 5 mg/kg daily, 3 hr, 24 hr and 5 days post injury
[5] = treatment post injury 5 mg/kg i.p. daily

Row | Compound | clonal generation of neurospheres [1] | clonal neurospheres from postnatal rat forebrain (FIG. 8A) [2] | AC133 in brain cortex after TBI (FIG. 6A) [3, 4] | Nestin in brain cortex after TBI (FIG. 6B) [3, 4] | expression of AC133 neural stem cells after traumatic brain injury (FIG. 10A) [3, 5] | expression of nestin in neural stem cells after traumatic brain injury (FIG. 10B) [3, 5]
1 | lysophosphatidic acid [LPA] | instigated clonal generation of mouse neurospheres |  |  |  |  | 
2 | CCCCC/C=C\C/C=C\C/C=C\C/C=C\CCCC(=O)OC(CO)CO [2-AG, 2-arachidonoyl glycerol] | instigated clonal generation of neurospheres | abolition | up-regulation | up-regulation | increase of enhanced expression | increase of enhanced expression
